The target of experiment [1] is T1, Histidine tagged HIF-2α protein containing PAS-B domain (240-350) (Homo sapiens, UniProt Q99814).
T1 construct: HIF-2α protein containing PAS-B domain (240-350); made in house
In words: HIF-2α Scintillation Proximity Assay (SPA) binding assay. The note with it: 50 nM HIF-2α protein, 25 nM 3H-tracer. On the procedure: HIF-2α Scintillation Proximity Assay (SPA) Binding Assay:
Tritium labeled compound N-(3-chlorophenyl)-4-nitro-2,1,3-benzoxadiazol-5-amine was obtained from American Radiolabeled Chemicals Inc. and copper chelate PVT SPA beads were from PerkinElmer (Cat #RPNQ0095). Histidine tagged HIF-2α protein containing PAS-B domain (240-350) was prepared and purified in house.
Compounds solubilized in DMSO were dispensed into a white 384-well polystyrene non-binding flat clear bottom plate (Greiner Bio-One, Cat #781903) using an HP D300 dispenser. Ten microliters of HIS-tagged HIF-2α protein in buffer (25 mM Tris-HCl, pH 7.4, 150 mM NaCl, 0.15% BSA and 0.001% Tween 20) was added to the compound wells and allowed to incubate for 1 hour at room temperature. Ten microliters of SPA bead mix were added to the wells and incubated for an additional 45 minutes, followed by 10 ul of ^3H-tracer solution. Final assay conditions comprised 50 nM HIF-2α protein, 25 nM radiolabeled tracer and 3 ug beads per well with compounds in 2% DMSO. The plate was read using a MicroBeta Microplate Counter (PerkinElmer) for luminescence detection. The IC50 values of the test compounds were determined from compound dose response curves fitted using a standard four parameter fit equation and are reported in Table 1, Table 2, and Table 3.
(SPA uses beads or plates that emit light when radiolabelled molecules are held near them.)

In a further experiment the target is T2, HIF-2α (Homo sapiens, UniProt Q99814).
T2 construct: host or cells: 786-O cells stably transduced with Cignal Lenti HIF Luc Reporter (only the reporter was introduced, not HIF-2α)
Kind of experiment: HIF-2α luciferase reporter assay in HIF-Luc-786-O cells. The experiment is classed as cell-based. A digest of the protocol: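 786-O cells stably carrying a HIF-responsive luciferase reporter, 20,000/well in OptiMem with 1% DMSO, exposed to compound up to 50 uM for 20 h at 37 °C. ONE-Glo luminescence normalised to DMSO and no-cell controls; IC50 by four-parameter fit.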
A general note: Reporter assays use an easily measured gene product as a stand-in for the process of interest.

These results are taken from patent US11787762B2, “Tetralin and tetrahydroquinoline compounds as inhibitors of HIF-2alpha” (ARCUS BIOSCIENCES, INC., priority 2020, dated 2023).

T2 sequence (Q99814 whole entry): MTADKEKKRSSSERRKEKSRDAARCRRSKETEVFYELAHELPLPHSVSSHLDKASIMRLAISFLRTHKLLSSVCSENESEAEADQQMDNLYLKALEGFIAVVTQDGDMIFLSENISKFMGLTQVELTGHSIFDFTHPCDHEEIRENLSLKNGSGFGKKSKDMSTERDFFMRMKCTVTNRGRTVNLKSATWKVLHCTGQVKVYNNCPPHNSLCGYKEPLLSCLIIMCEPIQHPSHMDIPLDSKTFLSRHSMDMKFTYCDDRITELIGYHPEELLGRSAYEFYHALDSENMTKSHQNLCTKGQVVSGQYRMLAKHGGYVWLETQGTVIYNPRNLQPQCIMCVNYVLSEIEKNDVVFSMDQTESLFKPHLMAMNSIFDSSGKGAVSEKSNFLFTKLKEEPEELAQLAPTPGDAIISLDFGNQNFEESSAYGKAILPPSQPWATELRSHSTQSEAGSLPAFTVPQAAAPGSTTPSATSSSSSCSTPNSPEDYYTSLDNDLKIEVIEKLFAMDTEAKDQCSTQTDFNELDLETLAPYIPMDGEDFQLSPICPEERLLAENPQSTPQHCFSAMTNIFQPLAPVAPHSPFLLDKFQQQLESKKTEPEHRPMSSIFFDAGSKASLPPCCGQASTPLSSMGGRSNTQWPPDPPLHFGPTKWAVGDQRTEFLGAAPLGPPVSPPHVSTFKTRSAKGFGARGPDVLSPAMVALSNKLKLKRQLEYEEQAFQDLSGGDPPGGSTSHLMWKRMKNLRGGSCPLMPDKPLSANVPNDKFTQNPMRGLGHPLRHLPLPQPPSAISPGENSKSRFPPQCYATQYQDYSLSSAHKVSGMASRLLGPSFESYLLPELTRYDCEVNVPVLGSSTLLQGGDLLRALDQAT
T1 sequence (Q99814 240-350): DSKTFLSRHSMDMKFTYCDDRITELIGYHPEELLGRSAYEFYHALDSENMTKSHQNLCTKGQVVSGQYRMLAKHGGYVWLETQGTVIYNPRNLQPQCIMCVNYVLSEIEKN

In the case of `O=[N+]([O-])c1cc(C(F)(F)F)ccc1N1CCCc2cc(F)cc(F)c21` [Example 24, 6,8-difluoro-1-[2-nitro-4-(trifluoromethyl)phenyl]-1,2,3,4-tetrahydroquinoline], the half-inhibitory concentration (IC50) (as a rule, the concentration that inhibits the measured activity by half) in experiment [1] (Table 1) was over 1000 nM; on HIF-2α (Table 1, 20 hours incubation), over 1000 nM.

As for `N#Cc1cc(N2CCCc3cc(F)cc(C#N)c32)ccc1C(F)(F)F` [Example 39], the IC50 is under 100 nM in experiment [1] (Table 1) and over 1000 nM against HIF-2α (Table 1, 20 hours incubation).

As to `O=Cc1c(S(=O)(=O)C(F)(F)F)ccc(N2CCCc3cc(F)cc(F)c32)c1Cl` [Example 68], the IC50 is over 1000 nM in experiment [1] (Table 1) and over 1000 nM against HIF-2α (Table 1, 20 hours incubation).

Regarding `O=S(=O)(c1ccc(N2CCCc3cc(F)cc(F)c32)c2c1[C@H](O)[C@@H](F)C2)C(F)(F)F` [Example 54], the IC50 in experiment [1] (Table 1) is over 1000 nM; against HIF-2α (Table 1, 20 hours incubation), over 1000 nM.

Consider `CS(=O)(=O)c1ccc(N2CCCc3cc(F)cc(F)c32)c2c1[C@H](O)C(F)(F)C2` (stereo in doubt) [Example 22, 4-(6,8-difluoro-1,2,3,4-tetrahydroquinolin-1-yl)-2,2-difluoro-7-methanesulfonyl-2,3-dihydro-1H-inden-1-ol], for which the IC50 was 100 to 1000 nM in experiment [1] (Table 1) and over 1000 nM against HIF-2α (Table 1, 20 hours incubation).

Turning to `Cn1nccc1-c1ccc([C@H]2CCCc3cc(F)cc(C#N)c32)c2c1[C@H](O)C(F)(F)C2` [Example 116], the IC50 is under 100 nM in experiment [1] (Table 1) and under 100 nM against HIF-2α (Table 1, 20 hours incubation).

With `N#Cc1cc(F)cc2c1[C@H](c1ccc(S(=O)(=O)C(F)(F)F)c3c1C[C@@H](F)[C@H]3O)CCC2` [Example 6, (S)-3-fluoro-8-((1S,2R)-2-fluoro-1-hydroxy-7-((trifluoromethyl)sulfonyl)-2,3-dihydro-1H-inden-4-yl)-5,6,7,8-tetrahydronaphthalene-1-carbonitrile], the IC50 in experiment [1] (Table 1) is over 1000 nM; against HIF-2α (Table 1, 20 hours incubation) it was over 1000 nM.

Turning to `OCc1cc(N2CCCc3cc(F)cc(F)c32)ccc1C(F)(F)F` [Example 63], the IC50 in experiment [1] (Table 1) is over 1000 nM; against HIF-2α (Table 1, 20 hours incubation) it was over 1000 nM.

As for `Cc1ncsc1-c1ccc([C@H]2CC[C@H](F)c3cc(F)cc(C#N)c32)c2c1[C@H](O)C(F)(F)C2` [Example 167, (5S,8R)-8-[(1S)-2,2-difluoro-1-hydroxy-7-(4-methyl-1,3-thiazol-5-yl)-2,3-dihydro-1H-inden-4-yl]-3,5-difluoro-5,6,7,8-tetrahydronaphthalene-1-carbonitrile], the IC50 in experiment [1] (Table 3) was under 100 nM; against HIF-2α (Table 3, 20 hours incubation), under 100 nM.

Take `CS(=O)(=O)c1ccc(C2CCCc3cc(F)cc(C#N)c32)c2c1[C@H](O)[C@H](F)C2` (stereo in doubt) [Example 7, (8S)-3-fluoro-8-((1S,2R)-2-fluoro-1-hydroxy-7-(methylsulfonyl)-2,3-dihydro-1H-inden-4-yl)-5,6,7,8-tetrahydronaphthalene-1-carbonitrile]: the half-inhibitory concentration (IC50) was under 100 nM in experiment [1] (Table 1) and under 100 nM against HIF-2α (Table 1, 20 hours incubation).

On to `N#Cc1cc(F)cc2c1[C@@H](c1ccc(-c3cccnc3CF)c3c1CC(F)(F)[C@H]3O)CC[C@@H]2F` [Example 173], for which the IC50 was under 100 nM in experiment [1] (Table 3) and under 100 nM against HIF-2α (Table 3, 20 hours incubation).

For `N#Cc1cc(F)cc2c1N(c1cnc(C(F)(F)F)c(F)c1)CCC2` [Example 32], the IC50 in experiment [1] (Table 1) was 100 to 1000 nM; against HIF-2α (Table 1, 20 hours incubation), 100 to 1000 nM.

Regarding `N#Cc1cc(F)cc2c1N(c1ccc(C(F)(F)F)c(C#N)c1Cl)CCO2` [Example 36], the IC50 in experiment [1] (Table 1) lay in the range of 100 to 1000 nM; against HIF-2α (Table 1, 20 hours incubation) it was 100 to 1000 nM.

Consider `CS(=O)(=O)c1ccc(N2CCOc3cc(F)cc(C#N)c32)c2c1[C@H](O)[C@H](F)C2` [Example 20, 7-fluoro-4-((1S,2R)-2-fluoro-1-hydroxy-7-(methylsulfonyl)-2,3-dihydro-1H-inden-4-yl)-3,4-dihydro-2H-benzo[b] [1,4]oxazine-5-carbonitrile], for which the half-maximal inhibitory concentration (IC50) was over 1000 nM in experiment [1] (Table 1) and over 1000 nM against HIF-2α (Table 1, 20 hours incubation).

`N#Cc1cc(F)cc2c1[C@@H](c1ccc(S(=O)(=O)C(F)(F)F)c3c1CC[C@H]3O)CCC2` [Example 90]: the IC50 in experiment [1] (Table 1) was under 100 nM; against HIF-2α (Table 1, 20 hours incubation), under 100 nM.

In the case of `CS(=O)(=O)c1ccc([C@@H]2CCCc3cc(F)cc(F)c32)c2c1[C@H](O)[C@H](F)C2` [Example 3, (1S,2R)-4-[(1S)-6,8-difluoro-1,2,3,4-tetrahydronaphthalen-1-yl]-2-fluoro-7-methanesulfonyl-2,3-dihydro-1H-inden-1-ol], the IC50 in experiment [1] (Table 1) was over 1000 nM; against HIF-2α (Table 1, 20 hours incubation) it was over 1000 nM.

Regarding `COC1CCN(c2ccc(C(F)(F)F)c(F)c2C#N)c2c(C#N)cc(F)cc21` (stereo not shown) [Example 131, 1-[2-Cyano-3-fluoro-4-(trifluoromethyl)phenyl]-6-fluoro-4-methoxy-3,4-dihydro-2H-quinoline-8-carbonitrile], the IC50 in experiment [1] (Table 2) is under 100 nM; at HIF-2α (Table 2, 20 hours incubation) it was under 100 nM.

For the compound `COC(=O)c1cc(N2CCCc3cc(F)cc(F)c32)ccc1S(=O)(=O)C(F)(F)F` [Example 77], the IC50 in experiment [1] (Table 1) is over 1000 nM; at HIF-2α (Table 1, 20 hours incubation), over 1000 nM.

With `N#Cc1cc(C(F)(F)F)ncc1N1CCCc2cc(F)cc(F)c21` [Example 86], the IC50 in experiment [1] (Table 1) is over 1000 nM; against HIF-2α (Table 1, 20 hours incubation) it was over 1000 nM.

In the case of `O=S1(=O)c2ccc(N3CCCc4cc(F)cc(F)c43)c(Cl)c2C(O)C1(F)F` (stereo not shown) [Example 52], the IC50 is 100 to 1000 nM in experiment [1] (Table 1) and over 1000 nM on HIF-2α (Table 1, 20 hours incubation).

As to `Cn1nccc1-c1ccc([C@H]2CC[C@H](F)c3cc(F)cc(C#N)c32)c2c1[C@H](O)[C@H](F)C2` [Example 157, (5S,8R)-3,5-difluoro-8-[(1S,2R)-2-fluoro-1-hydroxy-7-(2-methylpyrazol-3-yl)-2,3-dihydro-1H-inden-4-yl]-5,6,7,8-tetrahydronaphthalene-1-carbonitrile], the IC50 in experiment [1] (Table 3) was under 100 nM; against HIF-2α (Table 3, 20 hours incubation), under 100 nM.

On to `O=[N+]([O-])c1cc(S(=O)(=O)C(F)(F)F)ccc1N1CCCc2c(F)cc(F)cc21` [Example 64], for which the IC50 is over 1000 nM in experiment [1] (Table 1) and over 1000 nM against HIF-2α (Table 1, 20 hours incubation).

`O=[N+]([O-])c1c(N2CCCc3cc(F)cc(F)c32)ccc2nonc12` [Example 34]: the IC50 is over 1000 nM in experiment [1] (Table 1) and 100 to 1000 nM at HIF-2α (Table 1, 20 hours incubation).

For the compound `N#Cc1c(S(=O)(=O)C(F)(F)F)ccc(N2CCCc3cc(F)cc(Cl)c32)c1Cl` [Example 12, 2-chloro-3-(8-chloro-6-fluoro-1,2,3,4-tetrahydroquinolin-1-yl)-6-trifluoromethanesulfonylbenzonitrile], the IC50 in experiment [1] (Table 1) was 100 to 1000 nM; on HIF-2α (Table 1, 20 hours incubation), over 1000 nM.

Take `N#Cc1cc(F)cc2c1N(c1ccc(C(F)(F)F)c(F)c1C#N)CC[C@@H]2F` [Example 121, (4S)-1-[2-Cyano-3-fluoro-4-(trifluoromethyl)phenyl]-4,6-difluoro-3,4-dihydro-2H-quinoline-8-carbonitrile]: the half-maximal inhibitory concentration (IC50) was under 100 nM in experiment [1] (Table 2) and under 100 nM on HIF-2α (Table 2, 20 hours incubation).

As to `CS(=O)(=O)c1ccc(N2CCCc3cc(F)cc(Cl)c32)c2c1[C@H](O)[C@H](F)C2` [Example 47], the IC50 was 100 to 1000 nM in experiment [1] (Table 1) and over 1000 nM at HIF-2α (Table 1, 20 hours incubation).

As for `CS(=O)(=O)c1ccc([C@H]2C[C@H](F)[C@H](F)c3cc(F)cc(C#N)c32)c2c1[C@H](O)[C@H](F)C2` [Example 215, (5R,6S,8R)-3,5,6-trifluoro-8-[(1S,2R)-2-fluoro-1-hydroxy-7-methanesulfonyl-2,3-dihydro-1H-inden-4-yl]-5,6,7,8-tetrahydronaphthalene-1-carbonitrile], the concentration for half-maximal inhibition (IC50) in experiment [1] (Table 3) is under 100 nM; on HIF-2α (Table 3, 20 hours incubation), under 100 nM.

In the case of `N#Cc1cc(F)cc2c1[C@@H](c1ccc(S(=O)(=O)C(F)F)c3c1C[C@@H](F)[C@H]3O)CCC2` [Example 115], the IC50 was under 100 nM in experiment [1] (Table 1) and under 100 nM at HIF-2α (Table 1, 20 hours incubation).

For the compound `N#Cc1cc(F)cc2c1[C@@H](c1ccc(C(F)(F)F)c(Cl)c1C#N)CC[C@H]2F` [Example 138, (5R,8R)-8-[3-chloro-2-cyano-4-(trifluoromethyl)phenyl]-3,5-difluoro-5,6,7,8-tetrahydronaphthalene-1-carbonitrile], the IC50 in experiment [1] (Table 2) was over 1000 nM; at HIF-2α (Table 2, 20 hours incubation), 100 to 1000 nM.

On to `O=S(=O)(c1ccc(N2CCCc3cc(F)cc(F)c32)c2c1C(F)C(F)(F)C2)C(F)(F)F` (stereo not shown) [Example 48], for which the IC50 in experiment [1] (Table 1) is 100 to 1000 nM; against HIF-2α (Table 1, 20 hours incubation), over 1000 nM.

With `O=Cc1c(S(=O)(=O)C(F)(F)F)ccc(N2CCCc3cc(F)cc(F)c32)c1Cl` [Example 69], the IC50 in experiment [1] (Table 1) was 100 to 1000 nM; at HIF-2α (Table 1, 20 hours incubation), over 1000 nM.

On to `CS(=O)(=O)c1c(Cl)cc([C@H]2CC[C@H](F)c3cc(F)cc(C#N)c32)c2c1[C@H](O)[C@H](F)C2` [Example 213, (5S,8R)-8-[(1S,2R)-6-Chloro-2-fluoro-1-hydroxy-7-methylsulfonyl-2,3-dihydro-1H-inden-4-yl]-3,5-difluoro-5,6,7,8-tetrahydronaphthalene-1-carbonitrile], for which the concentration for half-maximal inhibition (IC50) in experiment [1] (Table 3) is under 100 nM; at HIF-2α (Table 3, 20 hours incubation), under 100 nM.
